One series has as its target T1, 7620 (Trypanosoma brucei, UniProt Q57V83).
T1 construct: gene Tb08.30P3.140; full-length ORF, untagged, in pDR197; expressed in S. cerevisiae 22574d
The series is classed as cell-based. The settings on record: pH 7.0, 30 °C, excess competitor.

Substrate in series [1]: O=C(O)[C@@H]1CCCN1
Description: cells, lysate or membranes. To be noted: pH 7.0, 30 °C, 100 mM glucose, labelled compound.

The record followed here is publication PMC8094907 (The Journal of Biological Chemistry, 2021).

As for `C[C@H](N)C(=O)O` [alanine], the “relative uptake rate (%)” value on 7620 is “proline being the best substrate, followed by alanine and cysteine”.

As to `N[C@@H](CS)C(=O)O` [cysteine], on 7620, the “relative uptake rate (%)” value is “proline being the best substrate, followed by alanine and cysteine”.

B1: 7620 (Trypanosoma brucei brucei TREU927) (protein)
chain: MTSINAQPPNSATYPQDDHGSAEVVNLNAEVERPQPEEQKDGGGCFARVSLFMATIIPPGGIAASAFNIGSTTVGAGIFGLPAAANSSGLVMAMIYLIIITAMTIFSIYALGVAAERTNIRTYEGVARALLGPWGAYYTAATRAFFSFSACVAYVISVGDILSATLKGTNAPDFLKQKSGNRLLTSLMWLCFMLPLVIPRHIDSLRHVSTIAFILMIYMVLVVVVHSCMNGLPENIKNVSVGKDDNAEIILFNSGNRAIEGLGVFIFSYLFQITAYEVYMDMTNRSVGKFVLVVTIAMGMCLPMYALTAFFGYMDFGRNVTGSVLLQYDPVNYPAVMVGFVGVLVMLFVSYALLGLACRNALYDVIGWDFREVAFWKHCIAVVTLSIVMLLCGLFIPKITTVLGFAGSFCGGSLGFILPALFFMYSGGFTWQKVGPFYYISTYVLLITGVIAAVFGTGATIWAVTVG
For orientation: Km means the substrate concentration at which the rate is half of its maximum. Consider B1, for which, in series [1], the Km turned out to be 600 µM.
